Consider 4 compounds from ChEMBL document CHEMBL3352016, “Natural hydrazine-containing compounds: Biosynthesis, isolation, biological activities and synthesis” (Bioorg Med Chem, 2014).

SMILES strings stand for the structures.

Test [1] in a line: Anticancer activity against human MDA231 cells. Format: functional, cell-based. Particulars: MDA-MB-231.
Test [2] is described as follows: Inhibition of Escherichia coli DnaG primase.
Test [3] in a line: Anticancer activity against human HCT116 cells. Type of test: functional, cell-based. Particulars: HCT-116.
Test [4] in a line: Anticancer activity against human Caco2 cells. Format: functional, cell-based. Particulars: Caco-2.
In another test the test system is A-375. Kind of test: Anticancer activity against human A375 cells. Format: functional, cell-based.

The IC50 is the concentration that gives 50% inhibition. Compound `CCCC/C=C\N(NC(C)=O)C(=O)CCC1=CCOC1=O` [GERALCIN B] showed a 50% inhibitory concentration (IC50) in test [1] of 5 µM.

With `CCCC/C=C\N(NC(C)=O)C(=O)C(CO)/N=[N+](\[O-])CCCCCC` (stereo not given) [GERALCIN C], the IC50 in test [2] was determined as 700 µM; in test [3], 0.8 µM.

As for `COc1cc(/C=C/C(=O)NCCc2c[nH]c3ccc(O)cc23)ccc1O` [N-FERULOYL SEROTONIN], in test [4], half-maximal inhibition (IC50) required 81 µM.

Regarding `N[C@@H](CCC(=O)NNc1ccc(O)cc1)C(=O)O` [XANTHODERMINE], the half-maximal inhibitory concentration (IC50) in the test with A-375 is 1.6 µM. This lies in the single-digit micromolar range.
